Results from ChEMBL document CHEMBL1133402, “Irreversible inhibition of type I dehydroquinase by substrates for type II dehydroquinase” (Bioorg Med Chem Lett, 2000).
pKi: −log10 of the molar value. Activity calls are given as the source filed them. The calls are words filed in the database; no cut-off is given here.

Columns and labels:
[1] = biological target: T1, 3-dehydroquinate dehydratase (Escherichia coli K-12) (UniProt P05194); experiment: Tested for inhibitory activity against type I dehydroquinase; active
T1 sequence (whole entry): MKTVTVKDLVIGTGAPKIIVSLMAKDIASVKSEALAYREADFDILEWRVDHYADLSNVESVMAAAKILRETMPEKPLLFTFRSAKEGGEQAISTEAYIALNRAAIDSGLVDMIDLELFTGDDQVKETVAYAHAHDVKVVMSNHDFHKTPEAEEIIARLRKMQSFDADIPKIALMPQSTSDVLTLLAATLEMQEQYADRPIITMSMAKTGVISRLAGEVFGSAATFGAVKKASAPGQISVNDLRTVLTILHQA

[2] = biological target: T1, 3-dehydroquinate dehydratase (Escherichia coli K-12); experiment: kcat/Km value was determined
[3] = biological target: T2, 3-dehydroquinate dehydratase (Escherichia coli K-12, UniProt P05194); experiment: Tested for the binding affinity against dehydroquinase
T2 sequence (P05194 whole entry): T1 sequence (whole entry)

[4] = biological target: T1, 3-dehydroquinate dehydratase (Escherichia coli K-12); experiment: Tested for percent inactivation against dehydroquinase after 24 hr at 10 mM

Row | Activity [1] | k cat/Km [2] | pKi [3] | Inactivation [4] | SMILES
1 | Active |  |  |  | O=C(O)C1=C(Br)C(=O)[C@@H](O)[C@H](O)C1
2 | Active | 367000 M⁻¹ s⁻¹ | 2.43 | 70% | O=C1C(O)C(O)CC(O)(C(=O)O)C1Br (centres undefined)
3 | Active | 86000 M⁻¹ s⁻¹ | 4.10 | 45% | O=C1C(O)C(O)CC(O)(C(=O)O)C1F (centres undefined)
